Test results published in PMC9728581 (Frontiers in Pharmacology, 2022).

What was measured:
[1] = Unbound teicoplanin plasma concentration, ultrafiltration and UPLC-MS/MS; format: in vivo, human; conditions: plasma ultrafiltrate (Centrifree, 37°C), 103 observations, 72 patients, daily dose 50–1,600 mg i.v.
Protocol: (§1) However, prescribed dosing regimens were at the discretion of treating physicians based on the severity of the patient’s disease and the standard dosing regimen was not always followed. The daily dose range of patients included in this study was 50–1,600 mg.
(§2) Blood samples were typically collected within 30 min to 1 h preceding the 4th dose and the 6th dose, and depending on the actual clinical situation, blood samples might be taken at other time for TDM during the treatment. The Plasma samples were placed in a Centrifree® ultrafiltration device and placed in a 37°C water bath for 30 min, followed by centrifugation at 37°C, 1,500 × g for 30 min, and the ultrafiltrate was directly used for the determination of unbound concentration by ultra-performance liquid chromatography-tandem mass spectrometry (UPLC-MS/MS) method. […] The average relative recovery ratio was 97.9%, and the matrix effect factor was 0.97. Details of blood handling, storage and measurement have been described previously ([Fu et al., 2020]).

[2] = ref Pauluzzi et al., 1987; cited from earlier work
Text: Previous studies have shown that adverse events inc ...

[3] = system: serum albumin; conditions: ref Gao et al., 2020; cited from earlier work
Protocol: In this study, the protein binding ratio was calculated as the average value of 92.5%.

[4] = Population pharmacokinetic (NONMEM) model of unbound teicoplanin in Chinese adult patients; format: in vivo, human
Protocol: The pregnant female patients, hemodialysis patients, disseminated intravascular coagulation patients, and continuous renal replacement therapy patients were excluded.
as §1, §2
The PopPK modeling was performed using NONMEM (non-linear mixed effects modeling, v7.2, Globomax Corp, United States), and Wings for NONMEM (v6.1, Nick Holford, University of Auckland, New Zealand) was used as an auxiliary software for NONMEM execution. R (v3.6.1, Saik Urien, U.R.C. Paris Centre, Hopital Tarnier, France) was used for exploratory data analysis, data assembly, and graphical presentation of modeling and simulation results.
The parameter estimation method for PopPK model was FOCEI (first order conditional estimation with η-ε interaction option). The inter-individual variability (IIV) of the parameters were estimated using exponential random effects. θi=θ∙e^ηi (5) Where θi is the estimated parameter value of the individual i, θ represents the typical population parameter, and ηi (IIV) is assumed to follow the normal distribution with mean of 0 and variance of ω^2 and was estimated during model fitting.
The additive, proportional, and mixed residual error models were compared separately, and finally the mixed residual error model was selected for data fitting.
Covariate modeling analysis was used to explore the source of variability.
The stepwise covariate modeling approach was used to establish the covariate model in this analysis. During the forward selection step, all covariates were added to the PK parameters in the base model one by one. Covariates were screened based on the changes in objective function values (OFV) and graphical evaluation. The covariate with a significant effect (p < 0.05, e.g., df = 1, ΔOFV ≥ 3.84) would be added to the basic model to build a full model. Based on the full model, the existing covariates were deleted one by one as the backward elimination step. For each deleted covariate, the increase in OFV should be ≥ 10.83 (p < 0.001, df = 1), otherwise, this covariate should be excluded from the final model.
Continuous covariates (e.g., WT) were added to the model according to the following equation. θi=θTV×(covi/covmedian)^θx (7) Where θi is the parameter value of the ith individual; θTV is the population typical value of PK parameters; covi is the covariate value of the ith individual; covmedian is the median value of this covariate; θx is the influence coefficient of the covariate on the parameters.
Categorical covariates (e.g., gender) were added to the model according to the following equations: θi=θTV+θx,cov=xl if Cov=Xl (8) θi=θTV if Cov=X0 (9) Where θx,cov=xl is the change in a parameter when covariate X is at level l compared with the reference level (0).
The performance and stability of the final model were estimated using non-parametric bootstrap. 1,000 datasets generated by random sampling were evaluated. […]

[5] = non-parametric bootstrap, 1,000 datasets

## teicoplanin
[1]
  Unbound teicoplanin concentrations, range: 0.4 to 4.4 µg/mL
[1]; mostly trough, SD
  Unbound teicoplanin concentrations, mean ± SD: 1.5 ± 0.9 µg/mL
[2]
  total Ctrough above which thrombocytopenia was more common: > 60 µg/mL
[3]
  bound to serum albumin (protein binding ratio): 90%–95%
[4]; [5]
  θALB, bootstrap median: 1.55 g/L
  θCL, bootstrap median: 11.38 L/h
  θV, bootstrap median: 822 L
  θeGFR, bootstrap median: 0.501 mL/min
[4]; unbound teicoplanin, one-compartment model, 72 patients, 103 observations, at ALB 32
  θV, population typical value of the volume of distribution (NONMEM estimate): 811 L
[4]; unbound teicoplanin, one-compartment, first-order elimination, 72 Chinese adult patients, 103 observations, i.v. infusion, at eGFR 84
  θCL, population typical value of clearance (NONMEM estimate): 11.7 L/h
